# Test system: HEK-Blue TGFβ cell
# Assay: HEK-Blue TGFβ cellular reporter gene assay (SEAP readout)
# Format: cell-based
# Conditions: HEK-Blue TGFβ cells stimulated with TGF-β, 22-23 h incubation, SEAP read at 630 nm
# Method: HEK-Blue TGFβ Cellular Reporter Gene Assay:
# HEK-Blue TGFβ cell was purchased from Invivogen. Cell suspension of 2.5×10^5 cells/ml was prepared using Test Medium (DMEM containing 0.5% v/v heat-inactivated FBS). TGF-β working solution (6 ng/ml) was obtained through diluting TGF-β stock solution (10 μg/ml) by Test Medium before use. Eight different concentrations of all compounds were obtained by 3× gradient dilution method using TGF-β working solution. Add 100 μl of Test Medium (Vehicle) or test article or TGF-β working solution per well of a flat-bottom 96-well plate. Add 100 μl of HEK-Blue TGF-β cell suspension per well. Incubate the plate at 37° C. in a CO2 incubator for 22-23 h. Add 150 μl of resuspended QUANTI-Blue per well of a new flat-bottom 96-well plate. Add 30 μl of induced HEK-Blue TGF-β cells supernatant. Avoid pipetting at the bottom of wells. Incubate the plate at 37° C. incubator for 30-40 min. Determine secreted embryonic alkaline phosphatase (SEAP) levels using a spectrophotometer at 630 nm.
# The inhibition was calculated using the equation: […]
row,Compound,IC50 [nM]
1,Cc1cc(CCc2nnn[nH]2)cc(Nc2cc(Oc3cc(C)c(C)nc3-c3ccccn3)ccn2)c1 [Example 29],38
2,Cc1cc(Nc2cc(Oc3cn(C(C)C)nc3C3CCOCC3)ccn2)cc(C(C)(C)C(=O)O)c1 [Example 167],620
3,Cc1cc(Oc2ccnc(Nc3ccc(Cc4nnn[nH]4)cc3)c2)c(-c2ccccn2)nc1C [Example 15],1840
4,Cc1cc(Cc2nn[nH]n2)cc(Nc2cc(Oc3cn(C4CCC4)nc3-c3ccccc3)ccn2)c1 [Example 202],120
5,CCc1nc(-c2ccccn2)c(Oc2ccnc(Nc3cccc(C(C)(C)C(=O)O)c3)c2)cc1C [Example 85],44
6,Cc1ccc(Oc2ccnc(Nc3cc(CCc4nn[nH]n4)ccc3F)c2)c(C)n1 [Example 45],420
7,CCc1cc(Oc2ccnc(Nc3cccc(CCc4nn[nH]n4)c3)c2)c(-c2ccccn2)nc1C [Example 181],210
8,CC(C)(C(=O)O)c1cccc(Nc2cc(Oc3cn(C4CC4)nc3C3CCC3)ccn2)c1 [Example 129],29
9,Cc1ccc(Oc2ccnc(Nc3cccc(C(C)(C)C(=O)O)c3)c2)c(-c2ccccc2C)n1 [Example 92],80
10,Cn1cc(Oc2ccnc(Nc3cccc(C(C)(C)C(=O)O)c3)c2)c(-c2ccccc2)n1 [Example 120],50
11,CCc1nc(C)c(Oc2ccnc(Nc3cccc(C(C)(C)C(=O)O)c3)c2)cc1Cl [Example 83],35
12,CC(C)(C(=O)O)c1cccc(Nc2cc(Oc3cn(C4CC4)nc3-c3ccccn3)ccn2)c1 [Example 130],> 10000
13,Cc1nc(-c2ccccc2)ccc1Oc1ccnc(Nc2cccc(C(C)(C)c3nn[nH]n3)c2)c1 [Example 61],190
14,CCn1cc(Oc2ccnc(Nc3cccc(C(C)(C)C(=O)O)c3)c2)c(-c2ccccc2)n1 [Example 122],29
15,Cc1ccc(Oc2ccnc(Nc3cccc(C(C)(C)C(=O)O)c3)c2)c(-c2ccccc2C#N)n1 [Example 95],290
16,CCc1nc(C)c(Oc2ccnc(Nc3cccc(CC(C)(C)C(=O)O)c3)c2)cc1C [Example 151],30
17,Cc1cc(Oc2ccnc(Nc3ccc(CCC(=O)O)cc3)c2)c(-c2ccccn2)nc1C [Example 2],230
18,COc1ccc(Nc2cc(Oc3ccc(C)nc3-c3ccccn3)ccn2)cc1CCc1nn[nH]n1 [Example 184],330
19,Cc1cc(Oc2ccnc(Nc3cnn(CCc4nn[nH]n4)c3)c2)c(-c2ccccn2)nc1C [Example 31],> 10000
20,Cc1cc(Oc2ccnc(Nc3cncc(CCC(=O)O)c3)c2)c(-c2ccccn2)nc1C [Example 3],> 10000
21,Cc1cccc(-c2nc(C)ccc2Oc2ccnc(Nc3cccc(CCc4nn[nH]n4)c3)c2)n1 [Example 63],720
22,CCc1nc(C)c(Oc2ccnc(Nc3cc(C)cc(C(C)(C)C(=O)O)c3)c2)cc1Cl [Example 153],70
23,Cc1cc(Oc2ccnc(Nc3cncc(CCc4nnn[nH]4)c3)c2)c(-c2ccccn2)nc1C [Example 23],> 10000
24,"O=C(O)CCc1cccc(Nc2cc(Oc3cn(C4CC4)nc3C3CCOCC3)ccn2)c1 [Example 68, 3-(3-((4-((1-cyclopropyl-3-(tetrahydro-2H-pyran-4-yl)-1H-pyrazol-4-yl)oxy)pyridin-2-yl)amino)phenyl)propanoic acid]",740
25,O=C(O)CCc1cccc(Nc2cc(Oc3cn(C4CC4)nc3-c3ccccc3)ccn2)c1 [Example 171],16
26,CC(C)(C(=O)O)c1cccc(Nc2cc(Oc3cn(C4CC4)nc3-c3ccccc3)ccn2)c1 [Example 119],13
27,Cc1cc(Oc2ccnc(Nc3cc(Cl)cc(CCc4nn[nH]n4)c3)c2)c(-c2ccccn2)nc1C [Example 180],79
28,Cc1nc(-c2ccccc2)c(Oc2ccnc(Nc3cccc(C(C)(C)C(=O)O)c3)c2)cc1C(C)C [Example 102],2710

row,Compound,IC50 [nM]
1,Cc1ccc(Oc2ccnc(Nc3cccc(CCc4nn[nH]n4)c3)c2)c(C(F)(F)F)n1 [Example 58],150
2,Cc1ccc(Oc2ccnc(Nc3ccc(C(F)(F)F)c(CCc4nn[nH]n4)c3)c2)c(-c2ccccn2)n1 [Example 65],520
3,Cc1ccc(-c2nc(C)ccc2Oc2ccnc(Nc3cccc(C(C)(C)C(=O)O)c3)c2)cc1 [Example 94],64
4,Cc1cc(CC(C)(C)C(=O)O)cc(Nc2cc(Oc3cn(C4CC4)nc3C3CCOCC3)ccn2)c1 [Example 162],120
5,CCc1nc(C)c(Oc2ccnc(Nc3cccc(C(C)(C)C(=O)O)c3)c2)cc1C [Example 82],18
6,CCc1nc(C)c(Oc2ccnc(Nc3cccc(CCC(=O)O)c3)c2)cc1Cl [Example 154],16
7,Cc1ccc(Oc2ccnc(Nc3cccc(CCC(=O)O)n3)c2)c(C)n1 [Example 37],200
8,Cc1cc(Oc2ccnc(Nc3cccc(CCC(=O)O)c3F)c2)c(-c2ccccn2)nc1C [Example 10],220
9,O=C(O)c1cccc(Nc2cc(Oc3cn(C4CC4)nc3C3CCOCC3)ccn2)c1 [Example 111],6200
10,Cc1ccc(Nc2cc(Oc3cc(C)c(C)nc3-c3ccccn3)ccn2)cc1C(C)(C)C(=O)O [Example 136],100
11,Cc1cccc(-c2nc(C)ccc2Oc2ccnc(Nc3cccc(C(C)(C)C(=O)O)c3)c2)c1 [Example 93],120
12,CC(C)(Cc1cccc(Nc2cc(Oc3cn(C4CC4)nc3C3CCOCC3)ccn2)c1)C(=O)O [Example 160],210
13,Cc1ccc(Nc2cc(Oc3cc(C)c(C)nc3-c3ccccn3)ccn2)cc1CCc1nnn[nH]1 [Example 28],50
14,Cc1ccc(Oc2ccnc(Nc3ccc(Cl)c(CCc4nn[nH]n4)c3)c2)c(C)n1 [Example 50],630
15,CC(C)(C(=O)O)c1cccc(Nc2cc(Oc3cn(C4CC4)nc3C3CCCC3)ccn2)c1 [Example 128],22
16,O=C(O)Cc1cccc(Nc2cc(Oc3cn(C4CC4)nc3C3CCOCC3)ccn2)c1 [Example 163],3600
17,Cc1ccc(Oc2ccnc(Nc3cccc(C(C)(C)C(=O)O)c3)c2)c(-c2cccc(Cl)c2)n1 [Example 78],110
18,CCc1nc(C)c(Oc2ccnc(Nc3cc(C)cc(C(C)(C)C(=O)O)c3)c2)cc1C [Example 148],34
19,Cc1cc(Oc2ccnc(Nc3cc(CCC(=O)O)ccn3)c2)c(-c2ccccn2)nc1C [Example 8],590
20,Cc1cc(Oc2ccnc(Nc3cc(CCc4nnn[nH]4)ccn3)c2)c(-c2ccccn2)nc1C [Example 24],4530
21,"Cc1cc(Oc2ccnc(Nc3cccc(C(C)(C)C(=O)O)c3)c2)c(-c2ccccn2)nc1C [Example 71, 2-(3-((4-((5,6-dimethyl-[2,2′-bipyridin]-3-yl)oxy)pyridin-2-yl)amino)phenyl)-2-methylpropanoic acid]",140
22,O=C(O)c1cc(Nc2cc(Oc3cn(C4CC4)nc3C3CCOCC3)ccn2)ccn1 [Example 117],> 10000
23,Cc1ccc(CCc2nnn[nH]2)cc1Nc1cc(Oc2cc(C)c(C)nc2-c2ccccn2)ccn1 [Example 30],110
24,COc1ccc(Nc2cc(Oc3cc(C)c(C)nc3-c3ccccn3)ccn2)cc1CCc1nn[nH]n1 [Example 177],150
25,CC(C)(C(=O)O)c1cccc(Nc2cc(Oc3cn(C4CC4)nc3C3CCCCC3)ccn2)c1 [Example 127],12
26,Cc1cc(CC(C)(C)C(=O)O)cc(Nc2cc(Oc3cc(Cl)c(C)nc3C)ccn2)c1 [Example 158],37
27,Cc1ccc(Oc2ccnc(Nc3cccc(C(C)(C)C(=O)O)c3)c2)c(-c2ccc(F)cc2)n1 [Example 91],18

# Reference: patent US20220054465A1, “(PYRIDIN-2-YL)AMINE DERIVATIVES AS TGF-BETA R1 (ALK5) INHIBITORS FOR THE TREATMENT OF CANCER” (Nexys Therapeutics, Inc., priority 2018, published 2022)
